The record followed here is patent US7767665B2, “1,3-benzothiazinone derivatives and use thereof” (Takeda Pharmaceutical Company Limited, priority 2001, dated 2010).

What is called melting point is the temperature of the solid-liquid transition.

Counter-ions that a name gives are not always drawn.

For `Cc1ccc(Sc2cccc(-c3nc(=O)c4ccccc4s3)n2)cc1` [Example 46, 2-{6-[(4-methylphenyl)thio]-2-pyridyl}-4H-1,3-benzothiazine-4-one], the melting point lay in the range of 176.9 to 178.4 °C.

Consider `CC[S+]([O-])c1cccc(-c2nc(=O)c3ccccc3s2)n1` (stereo not drawn) [Example 149, 2-[6-(Ethylsulfinyl)-2-pyridyl]-4H-1,3-benzothiazine-4-one], for which the melting point was in the range of 181.5 to 182.1 °C. Turning to `O=c1nc(-c2cc(C3CCCN3)ccn2)sc2ccccc12` (stereo not drawn) (as salt: trifluoroacetic acid salt) [Example 353, 2-[4-(2-Pyrrolidinyl)-2-pyridyl]-4H-1,3-benzothiazine-4-one trifluoroacetic acid salt], the melting point was 187.5 to 189 °C. In the case of `CCOC(=O)c1cccc(-c2nc(=O)c3ccccc3s2)n1` [Example 26, Ethyl 6-(4-oxo-4H-1,3-benzothiazin-2-yl)-2-pyridinecarboxylate], the melting point was 170 to 172.2 °C. Regarding `Cc1cc(C)c2sc(-c3cccc(CCCOCCC(=O)O)n3)nc(=O)c2c1` [Example 88], the melting point fell in the range of 156.5 to 157.1 °C. Turning to `Cc1cccc2sc(-c3ccccn3)nc(=O)c12` [Example 17, 5-Methyl-2-(2-pyridyl)-4H-1,3-benzothiazine-4-one], the melting point lay within 150.8 to 151.3 °C.

Compound `CC(C)(C)OC(=O)CCc1ccnc(-c2nc(=O)c3ccc(Cl)cc3s2)c1` [Example 183, tert-Butyl 3-[2-(7-chloro-4-oxo-4H-1,3-benzothiazin-2-yl)-4-pyridyl]propanoate] registered a melting point of 151.8 to 152.1 °C.

`CC(C)(C)OC(=O)CS(=O)(=O)c1cccc(-c2nc(=O)c3ccccc3s2)n1` [Example 280, tert-Butyl {[6-(4-oxo-4H-1,3-benzothiazin-2-yl)-2-pyridyl]sulfonyl}acetate] returned a melting point of 159 to 160 °C.

The compound `O=C(O)CNC(=O)CCc1cccc(-c2nc(=O)c3ccccc3s2)n1` [Example 312, ({3-[6-(4-Oxo-4H-1,3-benzothiazin-2-yl)-2-pyridyl]propanoyl}amino)acetic acid] came in with a melting point of 219.2 to 219.8 °C. For the compound `CC(C)(C)OC(=O)CSc1cccc(-c2nc(=O)c3ccccc3s2)n1` [Example 275, tert-Butyl {[6-(4-oxo-4H-1,3-benzothiazin-2-yl)-2-pyridyl]thio}acetate], the melting point was 169.5 to 170 °C. As for `CS(=O)(=O)c1ccnc(-c2nc(=O)c3ccccc3s2)c1` [Example 300, 2-[4-(Methylsulfonyl)-2-pyridyl]-4H-1,3-benzothiazine-4-one], the figure is 300 to 301 °C. On to `NC(=O)CCc1ccnc(-c2nc(=O)c3ccccc3s2)c1` [Example 331, 3-[6-(4-Oxo-4H-1,3-benzothiazin-2-yl)-4-pyridyl]propanamide], for which the melting point fell in the range of 237 to 239.7 °C. Compound `Cc1cccc2c(=O)nc(-c3cccc(C(=O)O)n3)sc12` [Example 233, 6-(8-Methyl-4-oxo-4H-1,3-benzothiazin-2-yl)-2-pyridinecarboxylic acid] had a melting point of 260.5 to 260.8 °C. As for `CCOC(=O)CCCCc1cccc(-c2nc(=O)c3ccccc3s2)n1` [Example 303, Ethyl 5-[6-(4-oxo-4H-1,3-benzothiazin-2-yl)-2-pyridyl]valerate], the figure is 87 to 88 °C; as for `CC(=O)N(C)c1cccc(-c2nc(=O)c3ccccc3s2)n1` [Example 110, N-Methyl-N-[6-(4-oxo-4H-1,3-benzothiazin-2-yl)-2-pyridyl]acetamide], 218.3 to 220.3 °C; as for `O=C(O)CCCCCCc1cccc(-c2nc(=O)c3ccccc3s2)n1` [Example 307, 7-[6-(4-Oxo-4H-1,3-benzothiazin-2-yl)-2-pyridyl]heptanoic acid], 148.6 to 150.6 °C. In the case of `CN(CC(=O)O)c1cncc(-c2nc(=O)c3ccccc3s2)n1` [Example 292, {Methyl[6-(4-oxo-1,3-benzothiazin-2-yl)-2-pyrazinyl]amino}acetic acid], the melting point was 283 °C (dec.). `CC(C)(C)OC(=O)NCCc1cccc(-c2nc(=O)c3ccccc3s2)n1` [Example 217, tert-Butyl 2-[6-(4-oxo-4H-1,3-benzothiazin-2-yl)-2-pyridyl]ethylcarbamate] displayed a melting point of 170.2 to 170.8 °C.

`COc1ccc2c(=O)nc(-c3cccc(CCC(=O)OC(C)(C)C)n3)sc2c1` [Example 173, tert-Butyl 3-[6-(7-methoxy-4-oxo-4H-1,3-benzothiazin-2-yl)-2-pyridyl]propanoate] showed a melting point of 134.5 to 135.4 °C. In turn, `Cc1cc(CCC(=O)OC(C)(C)C)cc(-c2nc(=O)c3ccccc3s2)n1` [Example 319, tert-Butyl 3-[2-methyl-6-(4-oxo-4H-1,3-benzothiazin-2-yl)-4-pyridyl]propanoate] had a melting point of 129.4 to 130.5 °C.

The compound `O=C1c2ccccc2C(=O)N1Cc1cccc(-c2nc(=O)c3ccccc3s2)n1` [Example 236, 2-[[6-(4-Oxo-4H-1,3-benzothiazin-2-yl)-2-pyridyl]methyl]-1H-isoindole-1,3(2H)-dione] registered a melting point of 280.4 to 281.1 °C.

Compound `O=c1nc(-c2cccc(CSc3ccccn3)n2)sc2ccccc12` [Example 272, 2-{6-[(2-Pyridylthio)methyl]-2-pyridyl}-4H-1,3-benzothiazine-4-one] showed a melting point of 151.3 to 151.9 °C. `CC(C)(C)OC(=O)CCc1cccc(-c2nc(=O)c3ccc(F)cc3s2)n1` [Example 181, tert-Butyl 3-[6-(7-fluoro-4-oxo-4H-1,3-benzothiazin-2-yl)-2-pyridyl]propanoate] displayed a melting point of 158.5 to 159.5 °C. As for `CN(C)C(=O)NCc1cccc(-c2nc(=O)c3ccccc3s2)n1` [Example 216, N,N-Dimethyl-N′-[[6-(4-oxo-4H-1,3-benzothiazin-2-yl)-2-pyridyl]methyl]urea], the melting point lay within 175.2 to 176.3 °C. Compound `CC(C)(C)OC(=O)CCOCCCc1ccnc(-c2nc(=O)c3ccccc3s2)c1` [Example 101, tert-Butyl 3-[3-[2-(4-oxo-4H-1,3-benzothiazin-2-yl)-4-pyridyl]propoxy]propanoate] showed a melting point of 81.1 to 82.2 °C.

`O=C(c1ccc2c(=O)nc(-c3ccccn3)sc2c1)N1CCOCC1` [Example 240, 7-(4-Morpholinocarbonyl)-2-(2-pyridyl)-4H-1,3-benzothiazine-4-one] yielded a melting point of 217.6 to 218.8 °C. `CCCCCCNc1cc(-c2nc(=O)c3ccccc3s2)ccn1` [Example 72, 2-[2-(Hexylamino)-4-pyridyl]-4H-1,3-benzothiazine-4-one] registered a melting point of 133.8 to 134.6 °C. `CCN1CCN(c2ccnc(-c3nc(=O)c4ccccc4s3)c2)C1=O` [Example 325, 2-[4-(3-Ethyl-2-oxo-1-imidazolidinyl)-2-pyridyl]-4H-1,3-benzothiazine-4-one]: the melting point was 211.5 to 213 °C. The compound `O=c1nc(-c2ccccn2)sc2cc(Br)ccc12` [Example 241, 7-Bromo-2-(2-pyridyl)-4H-1,3-benzothiazine-4-one] yielded a melting point of 230.7 to 232.2 °C. As for `CCc1cccc(-c2nc(=O)c3ccccc3s2)n1` [Example 140, 2-(6-Ethyl-2-pyridyl)-4H-1,3-benzothiazine-4-one], the figure is 150.5 to 150.9 °C.
